Laboratory results as given in patent US11590116B2 (THERAVANCE BIOPHARMA R&D IP, LLC, priority 2019, dated 2023).

What was measured:
[1] = tested on: TGF-β-stimulated SMAD3 phosphorylation in BEAS-2B cells; assay: Cellular ALK5 potency assay, inhibition of TGF-β stimulated pSMAD3 formation in BEAS-2B cells; assay type: cell-based; details: Homo sapiens; inhibition of TGF-β stimulated pSMAD3 formation, BEAS-2B cells; read-out: BEAS2B pIC50 (converted)
Method in brief: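 BEAS-2B human lung epithelial cells, seeded overnight, were pre-treated with compound in HBSS/25 mM HEPES/1% BSA for 1 h at 37 °C, then stimulated with TGF-β (final 10 ng/mL) for 30 min. Lysates were assayed for pSMAD3 by AlphaLISA; pIC50 came from dose-dependent signal change versus TGF-β-stimulated untreated cells.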

[2] = target: T1, recombinant human ALK5 (TGF-βR1) protein (Homo sapiens, UniProt P36897); assay: Biochemical ALK5 (TGF-βR1) assay to measure pKi (LANCE Ultra ULight kinase assay); details: apparent pKi from pIC50 by Cheng-Prusoff, read-out: ALK5 pKi (converted)
T1 construct: purchased Life Technologies PR9075A
T1 sequence (P36897 34-503): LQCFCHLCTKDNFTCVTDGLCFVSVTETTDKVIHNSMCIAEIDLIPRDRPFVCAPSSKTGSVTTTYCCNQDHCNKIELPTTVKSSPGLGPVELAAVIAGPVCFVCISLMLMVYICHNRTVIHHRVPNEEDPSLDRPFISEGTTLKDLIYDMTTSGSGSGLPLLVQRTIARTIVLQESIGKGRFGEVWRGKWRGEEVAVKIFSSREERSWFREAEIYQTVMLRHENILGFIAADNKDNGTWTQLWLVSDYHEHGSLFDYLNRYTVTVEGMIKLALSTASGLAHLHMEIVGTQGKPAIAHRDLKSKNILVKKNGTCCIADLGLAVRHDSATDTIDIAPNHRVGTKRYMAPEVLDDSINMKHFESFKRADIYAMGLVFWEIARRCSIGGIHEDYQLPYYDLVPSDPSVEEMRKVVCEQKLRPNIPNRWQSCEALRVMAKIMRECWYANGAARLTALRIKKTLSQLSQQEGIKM
Method in brief: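 After a 60 min room-temperature preincubation of ALK5 with compound, phosphorylation proceeds 60 min at 37 °C on ATP addition (125 μM as 5× stock). Detection: Eu-labelled phospho-Thr1342 Topo IIα antibody in EDTA buffer, pH 7.0; emission 665 nm.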

SMILES | IC50 [1] | Ki [2]
Cc1cccc(-c2[nH]cnc2-c2ccc3ncc(C(=O)OC[C@H]4CCCNC4)cc3c2)n1 [Compound 772, [(3S)-3-piperidyl]methyl 6-[5-(6-methyl-2-pyridyl)-1H-imidazol-4-yl]quinoline-3-carboxylate] | 25.1 to 158 nM | 0.0398 to 0.316 nM
Cc1cccc(-c2[nH]cnc2-c2ccc3ncc(C(=O)OC4CCCCNC4)cc3c2)n1 (centres unmarked) [Compound 773, azepan-3-yl 6-[5-(6-methyl-2-pyridyl)-1H-imidazol-4-yl]quinoline-3-carboxylate] | 25.1 to 158 nM | 0.0398 to 0.316 nM
Cc1cccc(-c2[nH]cnc2-c2ccc3ncc(C4=CC[C@@H](NC(=O)[C@@H]5CCCN5)CC4)cc3c2)n1 [Compound 775, (2S)-N-[(1S)-4-[6-[5-(6-methyl-2-pyridyl)-1H-imidazol-4-yl]-3-quinolyl]cyclohex-3-en-1-yl]pyrrolidine-2-carboxamide] | 25.1 to 158 nM | 0.0398 to 0.316 nM
Cc1cccc(-c2[nH]cnc2-c2ccc3ncc(C4=CC[C@H](NC(=O)[C@H]5CCCN5)CC4)cc3c2)n1 [Compound 776, (2R)-N-[(1R)-4-[6-[5-(6-methyl-2-pyridyl)-1H-imidazol-4-yl]-3-quinolyl]cyclohex-3-en-1-yl]pyrrolidine-2-carboxamide] | 25.1 to 158 nM | 0.0398 to 0.316 nM
Cc1cccc(-c2[nH]cnc2-c2ccc3ncc(C4=CC[C@@H](NC(=O)[C@H]5CCCN5)CC4)cc3c2)n1 [Compound 777, (2R)-N-[(1S)-4-[6-[5-(6-methyl-2-pyridyl)-1H-imidazol-4-yl]-3-quinolyl]cyclohex-3-en-1-yl]pyrrolidine-2-carboxamide] | 25.1 to 158 nM | 0.0398 to 0.316 nM
Cc1cccc(-c2[nH]cnc2-c2ccc3ncc(C4=CCN(C(=O)C5CCNCC5)CC4)cc3c2)n1 [Compound 778, [4-[6-[5-(6-methyl-2-pyridyl)-1H-imidazol-4-yl]-3-quinolyl]-3,6-dihydro-2H-pyridin-1-yl]-(4-piperidyl)methanone] | 25.1 to 158 nM | 0.0398 to 0.316 nM
Cc1cccc(-c2[nH]cnc2-c2ccc3ncc(C4=CCN(C(=O)[C@@H]5CCCN5)CC4)cc3c2)n1 [Compound 779, [4-[6-[5-(6-methyl-2-pyridyl)-1H-imidazol-4-yl]-3-quinolyl]-3,6-dihydro-2H-pyridin-1-yl]-[(2S)-pyrrolidin-2-yl]methanone] | 25.1 to 158 nM | 0.0398 to 0.316 nM
Cc1cccc(-c2[nH]cnc2-c2ccc3ncc(C(=O)OCC45CCC(CC4)N5)cc3c2)n1 [Compound 780, 7-azabicyclo[2.2.1]heptan-1-ylmethyl 6-[5-(6-methyl-2-pyridyl)-1H-imidazol-4-yl]quinoline-3-carboxylate] | 25.1 to 158 nM | 0.398 to 3.16 nM
Cc1cccc(-c2[nH]cnc2-c2ccc3ncc(C(=O)O[C@@H]4CCCNC4)cc3c2)n1 [Compound 781, [(3R)-3-piperidyl] 6-[5-(6-methyl-2-pyridyl)-1H-imidazol-4-yl]quinoline-3-carboxylate] | 25.1 to 158 nM | 0.398 to 3.16 nM
Cc1cccc(-c2[nH]cnc2-c2ccc3ncc(C(=O)O[C@H]4C[C@H](N)C4)cc3c2)n1 [Compound 782, (3-aminocyclobutyl) 6-[5-(6-methyl-2-pyridyl)-1H-imidazol-4-yl]quinoline-3-carboxylate] | 25.1 to 158 nM | 0.0398 to 0.316 nM
Cc1cccc(-c2[nH]ncc2-c2ccc3ncc(C(=O)O)cc3c2)n1 [Compound 783, 6-[5-(6-methyl-2-pyridyl)-1H-pyrazol-4-yl]quinoline-3-carboxylic Acid] | 1580 to 10000 nM | 3.98 to 31.6 nM
Cc1cccc(-c2[nH]ncc2-c2ccc3ncc(C(=O)OCC4CNC4)cc3c2)n1 [Compound 790, azetidin-3-ylmethyl 6-(5-(6-methylpyridin-2-yl)-1H-pyrazol-4-yl)quinoline-3-carboxylate] | 25.1 to 158 nM | 0.0398 to 0.316 nM
Cc1cccc(-c2[nH]cnc2-c2ccc3ncc(-c4cccc(C(=O)O)c4)cc3c2)n1 [Compound 794, 3-[6-[5-(6-methyl-2-pyridyl)-1H-imidazol-4-yl]-3-quinolyl]benzoic acid] | 1580 to 10000 nM | 0.0398 to 0.316 nM
Cc1cccc(-c2[nH]cnc2-c2ccc3ncc(-c4cncc(C(=O)O)c4)cc3c2)n1 [Compound 795, 5-[6-[5-(6-methyl-2-pyridyl)-1H-imidazol-4-yl]-3-quinolyl]pyridine-3-carboxylic acid] | 1580 to 10000 nM | 0.398 to 3.16 nM
Cc1cccc(-c2[nH]cnc2-c2ccc3ncc(C(=O)O)cc3c2)n1 [Compound 796, 6-[5-(6-methyl-2-pyridyl)-1H-imidazol-4-yl]quinoline-3-carboxylic Acid] | 1580 to 10000 nM | 3.98 to 31.6 nM
Cc1cccc(-c2[nH]cnc2-c2ccc3ncc(-c4nc(C(=O)O)cs4)cc3c2)n1 [Compound 797, 2-(6-(5-(6-methylpyridin-2-yl)-1H-imidazol-4-yl)quinolin-3-yl)thiazole-4-carboxylic acid] | 1580 to 10000 nM | 0.0398 to 0.316 nM
Cc1cccc(-c2[nH]cnc2-c2ccc3ncc(-c4csc(C(=O)O)c4)cc3c2)n1 [Compound 798, 4-(6-(5-(6-methylpyridin-2-yl)-1H-imidazol-4-yl)quinolin-3-yl)thiophene-2-carboxylic acid] | 1580 to 10000 nM | 0.0398 to 0.316 nM
Cc1cccc(-c2[nH]cnc2-c2ccc3ncc(-c4ccnc(C(=O)OC5CCNCC5)c4)cc3c2)n1 [Compound 799, 4-piperidyl 4-[6-[5-(6-methyl-2-pyridyl)-1H-imidazol-4-yl]-3-quinolyl]pyridine-2-carboxylate] | 200 to 1260 nM | 0.0398 to 0.316 nM
CCOC(=O)c1ccnc2ccc(-c3c[nH]nc3-c3cccc(C)n3)nc12 [Compound 800, ethyl 6-[3-(6-methyl-2-pyridyl)-1H-pyrazol-4-yl]-1,5-naphthyridine-4-carboxylate] | 25.1 to 158 nM | 0.0398 to 0.316 nM
Cc1cccc(-c2n[nH]cc2-c2ccc3nccc(CO)c3n2)n1 [Compound 801, [6-[3-(6-methyl-2-pyridyl)-1H-pyrazol-4-yl]-1,5-naphthyridin-4-yl]methanol] | 200 to 1260 nM | 0.398 to 3.16 nM
Cc1cccc(-c2n[nH]cc2-c2ccc3nccc(C(=O)NCCN4CCOCC4)c3n2)n1 [Compound 802, 6-[3-(6-methyl-2-pyridyl)-1H-pyrazol-4-yl]-N-(2-morpholinoethyl)-1,5-naphthyridine-4-carboxamide] | 200 to 1260 nM | 0.0398 to 0.316 nM
Cc1cccc(-c2n[nH]cc2-c2ccc3nccc(C(N)=O)c3n2)n1 [Compound 806, 6-[3-(6-methyl-2-pyridyl)-1H-pyrazol-4-yl]-1,5-naphthyridine-4-carboxamide] | 25.1 to 158 nM | 0.398 to 3.16 nM
Cc1cccc(-c2n[nH]cc2-c2ccc3nccc(CCC(=O)N4CCOCC4)c3n2)n1 [Compound 810, 3-[6-[3-(6-methyl-2-pyridyl)-1H-pyrazol-4-yl]-1,5-naphthyridin-4-yl]-1-morpholino-propan-1-one] | 200 to 1260 nM | 0.398 to 3.16 nM
Cc1cccc(-c2n[nH]cc2-c2ccc3nccc(CN4CCOCC4)c3n2)n1 [Compound 811, 4-[[6-[3-(6-methyl-2-pyridyl)-1H-pyrazol-4-yl]-1,5-naphthyridin-4-yl]methyl]morpholine] | 200 to 1260 nM | 0.0398 to 0.316 nM
Cc1cccc(-c2n[nH]cc2-c2ccc3nccc(CCCN4CCOCC4)c3n2)n1 [Compound 812, 4-[3-[6-[3-(6-methyl-2-pyridyl)-1H-pyrazol-4-yl]-1,5-naphthyridin-4-yl]propyl]morpholine] | 200 to 1260 nM | 0.398 to 3.16 nM
